Measurements taken from patent US6891063B1, “Salts of asiatic and madecassic acid suitable for the preparation of pharmaceutical and cosmetic compositions” (Euphar Group S.r.l., priority 1999, dated 2005).

Experiments:
[1] = prior art statement; cited from earlier work
[2] = test system: Croton oil induced oedema in the mouse ear; experiment: Test of topical antiinflammatory activity: Croton oil dermatitis in the mouse ear; format: in vivo; conditions: for ID50 (dose level able to reduce by 50% the oedematous response): linear interpolation from the dose-response relationship, indomethacin value confirmed from past data; for Inhibition (%) of oedema / Oedema (mg) m ± E.S.: 6 hours
Experimental: 3. Test of Topical Antiinflammatory Activity
The antiinflammatory activity of Asialene and L-Asialene was evaluated in comparison to that of the NSAID indomethacin. As experimental model, the Croton oil dermatitis induced in the mouse ear was used (Tubaro et al., Agents & Actions 17: 347-349).
The experimental inflammation was induced on the right ear (surface: about 1 cm^2) of anaesthetised mice (145 mg/kg ketamine hydrochloride i.p.) by application of 80 μg of Croton oil (Sigma-Italy) in 15 μl acetone on the right ear of mice, the left remaining untreated. The tested substances were dissolved in the Croton oil solution. Six hours after the dermatitis induction, the animals were sacrificed and a punch (6 mm diameter) was excised from both the treated and the untreated ears and weighed. The Croton oil induced oedema was quantified by measuring the difference in weight between the treated and untreated (opposite) ear samples. The anti-oedema activity was expressed as percent inhibition of the oedematous response in animals treated with the test substances in comparison to the animals treated with the irritant alone. Male albino Swiss mice CD-1 (Harlan-Italy), weighing 20-32 g, were used. For each substance and dose level, 10 animals were used.
The effects on the vascular response were evaluated as percent oedema inhibition. […] For each substance, the dose level able to reduce by 50% the oedematous response (ID50) was calculated by linear interpolation from the dose-response relationship.
Asialene and L-Asialene were administered at equimolar doses.

human endothelial cells [3] = experiment: Fibronectin evaluation (immunofluorescence, intercellular strands) in human endothelial cells in culture; format: cell-based; conditions: 1.5 μg/ml; after 48 hours; culture medium + EtOH 0.75 g/dl
Experimental: (§1) 1. Test of Production of PG1 and of Fibronectin from Human Endothelial Cells in Culture.
For the Fibronectin evaluation, the primary cultures were resuspended in 0.05% Trypsin/0.02% EDTA. The cells, washed twice in Hanks solution, were counted in order to assure at least 300,000 cells/ml and seeded. After 48 hours the supernatant was removed and the slides were prepared, which after being washed 2 times with PBS, and dried, were fixed in acetic acid/ethanol for 30 minutes; a washing with PBS was then carried out and added the polyclonal rabbit anti-human fibronectin antibody (1:40, Dako). After incubation at room temperature for 30 minutes, it was washed with PBS and the fluoresceinated anti-rabbit immunoglobulin antibody was added (1:100, Dako). The slides were left in incubation for 30 minutes and then mounted on an object holder and read with a fluorescence electronic microscope.
In the following table, the numbers relating to fibronectin intercellular strands (1:100 scale) are reported.

human endothelial cells [4] = experiment: Production of PG1 (6-Keto PGF1, RIA) from human endothelial cells in culture; format: cell-based; conditions: Asialene 1.5 μg/ml, culture medium + EtOH 0.75 g/dl
Experimental: as §1
The activity of the salt prepared in the Example 1, indicated as Asialene, on cicatrization was evaluated by an in vitro test which allows to deduce the effects of the substance on the vascular permeability and on the cicatrization.
The test consists in the evaluation of the production of PG1 from cells extracted by collagenase from vein of human omphalic funicle suspended and seeded in a suitable culture medium (E199+FCS 20%+L-Glutamine 2 mM+Penicillin 200 U/ml+Streptomycin 200 μg/ml) cultured in 75 or 25 ml flasks for 48-72 hours.
After removing the cells with 0.05% Trypsin and 0.02% EDTA the subcultures were prepared using secondary cultures seeded on a 35 mm Petri dish, kept in an incubator with 5% CO2 and 100% humidity. For the evaluation of the cell morphology and confluence and the PG1 production, about 300,000 cells/ml of culture medium were used carrying out the count in a Burker chamber, following three schemes: • 1. Cells+culture medium+EtOH(0.75 g/dl) • 2. Cells+culture medium+EtOH(0.75 g/dl)+FTT([…]) • 3. […]
The cultures were evaluated with an inverse light microscope, at 24 and 48 hours monitoring cell attachment and growth while on supernatant aliquots the stable metabolite of the prostacyclin (6-Keto PGF1) was assayed with RIA method. […]

platelet = experiment: Evaluation of the platelet aggregation inhibiting effect in PRP; format: cell-based, human; conditions: 70 μg/ml
Experimental: 2. Evaluation of the Platelet Aggregation Inhibiting Effect
Blood taken from healthy volunteers not submitted to pharmacological therapy during one week, was gathered in polyethylene test-tubes containing 3.8% sodium citrate in 1:9 ratio, and centrifuged at 1000 g for 10 minutes in order to obtain plasma having a high platelet content (PRP) and at 3000 g for 15 minutes in order to obtain plasma having a low platelet content (PPP). Two […] PRP samples (300,000+/−10000 platelet/ml final concentration) were submitted to incubation at 37° C. for 60 seconds in presence of 100 μl FTT (700 μg/ml) and 10 μl of Asialene ([…]) respectively. Each sample was divided in three portions which were treated with 10 μl of a platelet aggregation agent, ADP ([…] final concentration), collagen (4 μg/ml final concentration) and arachidonic acid (0.2 mg/ml final concentration) respectively, and the aggregation was recorded for 4 minutes.

For C[C@H]1[C@H](C)CC[C@]2(C(=O)O)CC[C@]3(C)C(=CC[C@@H]4[C@@]5(C)C[C@@H](O)[C@H](O)[C@@](C)(CO)[C@@H]5[C@H](O)C[C@]43C)[C@H]12 [madecassic acid], which solubility in water [1] is on record?
The solubility in water was “almost total insolubility in water”.

For C[C@@H]1CC[C@]2(C(=O)O)CC[C@]3(C)C(=CCC4[C@@]5(C)C[C@@H](O)[C@H](O)[C@@](C)(CO)C5CC[C@]43C)C2[C@H]1C (stereo partly drawn) [asiatic, 2α, 3β, 23-trihydroxyurs-12-en-28-oic acid], which solubility in water [1] is on record?
The solubility in water was “almost total insolubility in water”.

Which “ID50 (dose level able to reduce by 50% the oedematous response)” value [2] does the source give for COc1ccc2c(c1)c(CC(=O)O)c(C)n2C(=O)c1ccc(Cl)cc1 [Indomethacin, indomethacin, reference compound] here?
Its value is 90 μg/cm^2.

And the “Inhibition (%) of oedema” value ([2]; topical dose 90 μg/cm^2)?
The value was 49.3%.

What about the “Oedema (mg) m ± E.S.” value ([2]; topical dose 90 μg/cm^2) of the same molecule?
The value was 3.5 ± 0.4 mg.

Which “fibronectin intercellular strands (1:100 scale)” value (human endothelial cells [3]) does the source give for “Salt of the Asiatic Acid with Ethylenediamine [Asialene]” here?
Its value is 85.

And the “ID50 (dose level able to reduce by 50% the oedematous response)” value [2]?
Its value is 62 μg/cm^2.

What about the “Inhibition (%) of oedema” value ([2]; topical dose 30 μg/cm^2) of the same molecule?
Its value is 27.5%.

What about the “Oedema (mg) m ± E.S.” value ([2]; topical dose 30 μg/cm^2, control 6.9 ± 0.2) of the same molecule?
The value was 5.0 ± 0.4 mg.

What about the “Inhibition (%) of oedema” value ([2]; topical dose 100 μg/cm^2) of the same molecule?
The value was 68.1%.

And the “Oedema (mg) m ± E.S.” value ([2]; topical dose 100 μg/cm^2, control 6.9 ± 0.2)?
Its value is 2.2 ± 0.5 mg.

What about the “Inhibition (%) of oedema” value ([2]; topical dose 300 μg/cm^2) of the same molecule?
Its value is 91.3%.

And the “Oedema (mg) m ± E.S.” value ([2]; topical dose 300 μg/cm^2, control 6.9 ± 0.2)?
Its value is 0.6 ± 0.1 mg.

And the “Inhibition (%) of oedema” value ([2]; topical dose 1000 μg/cm^2)?
The value was 94.2%.

And the “Oedema (mg) m ± E.S.” value ([2]; topical dose 1000 μg/cm^2, control 6.9 ± 0.2)?
Its value is 0.4 ± 0.1 mg.

What about the “potency higher than that of the reference drug (comparison between the ID50 values)” value ([2]; versus indomethacin) of the same molecule?
The value was 50%.

What about the “6-Keto PGF1” value (human endothelial cells [4]; 24 h) of the same molecule?
Its value is 980 µg/mL.

What about the “6-Keto PGF1” value (human endothelial cells [4]; 48 h) of the same molecule?
The value was 889 µg/mL.

And the “Aggregation from arachidonic acid (0.2 mg/ml)” value (platelet; controls 81)?
The value was 23.

And the “Aggregation from ADP (4 mM)” value (platelet; controls 88)?
Its value is 32.

And the “Aggregation from collagen (4 μg/ml)” value (platelet; controls 100)?
Its value is 50.
